Test results from article PMC4418806 (Biochemistry, 2009).
Substitutions are numbered along the chain they refer to.

Key:
[1] = target: T1, Escherichia coli biotin synthase (BioB), His6-BioB (Escherichia coli, UniProt P12996); assay: […] kDa centrifugal filtration binding assay, HPLC
T1 sequence (P12996 1-346): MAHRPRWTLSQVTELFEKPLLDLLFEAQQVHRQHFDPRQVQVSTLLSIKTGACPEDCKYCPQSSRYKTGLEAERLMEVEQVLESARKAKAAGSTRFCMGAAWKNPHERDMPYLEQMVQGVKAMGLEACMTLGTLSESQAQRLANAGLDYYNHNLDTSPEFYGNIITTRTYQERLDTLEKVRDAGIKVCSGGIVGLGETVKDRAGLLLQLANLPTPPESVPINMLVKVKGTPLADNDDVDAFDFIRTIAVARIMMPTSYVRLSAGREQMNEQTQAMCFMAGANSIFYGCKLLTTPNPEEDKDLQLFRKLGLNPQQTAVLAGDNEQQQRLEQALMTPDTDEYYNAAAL

[2] = target: T2, Escherichia coli biotin synthase (BioB), His6-BioB (Escherichia coli, UniProt P12996, N153Q); assay: […] kDa centrifugal filtration binding assay, HPLC
T2 sequence (P12996 1-346 N153Q): T1 sequence (P12996 1-346) with N153Q

[3] = target: T3, Escherichia coli biotin synthase (BioB), His6-BioB (Escherichia coli, UniProt P12996, N153S); assay: […] kDa centrifugal filtration binding assay, HPLC
T3 sequence (P12996 1-346 N153S): T1 sequence (P12996 1-346) with N153S

[4] = target: T1, Escherichia coli biotin synthase (BioB), His6-BioB; assay: […] kDa centrifugal filtration of assay mixture, HPLC; format: binding; conditions: 50 μM enzyme, intermediate formed in situ, after 2 h assay, anaerobic

% bound to protein [4]	Compound	Kd [1] [nM]	Kd [2] [µM]	Kd [3] [µM]
	C[C@@H]1NC(=O)N[C@@H]1CCCCCC(=O)O [DTB]	500 ± 1000	110 ± 30	11 ± 3
~ 50%	O=C(O)CCCCC[C@H]1NC(=O)N[C@H]1CS [9-MDTB]			
	C[S+](CC[C@H](N)C(=O)O)C[C@H]1O[C@@H](n2cnc3c(N)ncnc32)[C@H](O)[C@@H]1O (stereo partly shown) [AdoMet]	1000 ± 500	530 ± 180	3 ± 1
